Laboratory results from PMC11971408, “Cryo-EM analyses unveil details of mechanism and targocil-II mediated inhibition of S. aureus WTA transporter TarGH” (Nature Communications, 2025).
One block for each compound: values may come before it.

Key:
[1] = target: T1, TarH (TarGH nucleotide binding domain) (Staphylococcus aureus, UniProt Q2FJ01); assay: malachite green ATPase assay of purified TarGH (Michaelis-Menten); format: biochemical
T1 construct: gene tagH; full-length TarH (residues 1–264) in TarG2H2 heterotetramer; with TarG (A0A0H2XIF1)

[2] = target: T1, TarH (TarGH nucleotide binding domain); assay: cryo-EM structure at […] Å
[3] = target: T2, TarG (TarGH WTA transporter, transmembrane domain) (Staphylococcus aureus, UniProt A0A0H2XIF1); assay: cryo-EM structures ([…] Å with AMP-PNP; […] Å with ATPγS), MST; IC50 from malachite green ATPase assay of purified TarGH; format: biochemical
T2 construct: gene tagG; full-length TarG with N-terminal His tag, co-expressed with TarH (residues 1–264) as TarG2H2 heterotetramer; with TarH (Q2FJ01)

SMILES: Nc1ncnc2c1ncn2[C@@H]1O[C@H](COP(=O)(O)OP(=O)(O)OP(=O)(O)O)[C@@H](O)[C@H]1O [ATP]
malachite green ATPase assay of purified TarGH (Michaelis-Menten) [1]: ~ 70 mol Pi/min mol protein

SMILES: Nc1ncnc2c1ncn2[C@@H]1O[C@H](CO[P@](=O)(O)O[P@](=O)(O)O[P@@](=O)(O)S)[C@@H](O)[C@H]1O [ATPγS]
cryo-EM structure at 2.3 Å [2]: ATPγS is well resolved at the TarH dimer interface, forming characteristic interactions with the ABC motifs

IC50 [3]: 6.5 ± 1.2 µM
SMILES: Cc1c(CC(=O)N2CCC[C@H]2C(=O)O)c(=O)oc2c(C)c3occ(-c4ccc(Cl)cc4)c3cc12 [targocil-II]
